Experimental data: ChEMBL document CHEMBL1770095, “Discovery of histone deacetylase 8 selective inhibitors” (Bioorg Med Chem Lett, 2011)

Experiments:
[1] = molecular target: Histone deacetylase 3/Nuclear receptor corepressor 2 (HDAC3/NCoR2) (Homo sapiens, UniProt O15379); experiment: Inhibition of full length HDAC3/NCoR2 assessed as 7-amino-4-methylcoumarin release from fluorophore conjugated substrate after 5 mins by fluorescence assay; type: protein-complex assay
[2] = molecular target: Histone deacetylase 2 (Homo sapiens, UniProt Q92769); experiment: Inhibition of full length HDAC2 assessed as 7-amino-4-methylcoumarin release from fluorophore conjugated substrate after 5 mins by fluorescence assay
Histone deacetylase 2, sequence (Q92769 whole entry): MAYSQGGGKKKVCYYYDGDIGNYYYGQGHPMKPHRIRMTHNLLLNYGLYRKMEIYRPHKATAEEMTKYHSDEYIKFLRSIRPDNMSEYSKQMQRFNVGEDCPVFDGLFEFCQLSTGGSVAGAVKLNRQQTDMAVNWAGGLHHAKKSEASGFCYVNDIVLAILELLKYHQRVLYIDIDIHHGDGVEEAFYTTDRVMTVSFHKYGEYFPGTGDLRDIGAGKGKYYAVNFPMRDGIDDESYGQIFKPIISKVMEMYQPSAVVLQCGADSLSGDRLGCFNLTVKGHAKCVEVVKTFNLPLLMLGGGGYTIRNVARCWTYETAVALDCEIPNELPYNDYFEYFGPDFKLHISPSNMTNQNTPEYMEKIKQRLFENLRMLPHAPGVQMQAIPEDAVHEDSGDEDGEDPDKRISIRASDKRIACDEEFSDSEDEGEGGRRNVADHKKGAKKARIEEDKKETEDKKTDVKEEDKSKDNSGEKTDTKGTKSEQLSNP

[3] = molecular target: T1, Histone deacetylase 8 (Homo sapiens, UniProt Q9BY41); experiment: Inhibition of full length HDAC8 assessed as 7-amino-4-methylcoumarin release from fluorophore conjugated substrate after 5 mins by fluorescence assay
T1 sequence (Q9BY41 whole entry): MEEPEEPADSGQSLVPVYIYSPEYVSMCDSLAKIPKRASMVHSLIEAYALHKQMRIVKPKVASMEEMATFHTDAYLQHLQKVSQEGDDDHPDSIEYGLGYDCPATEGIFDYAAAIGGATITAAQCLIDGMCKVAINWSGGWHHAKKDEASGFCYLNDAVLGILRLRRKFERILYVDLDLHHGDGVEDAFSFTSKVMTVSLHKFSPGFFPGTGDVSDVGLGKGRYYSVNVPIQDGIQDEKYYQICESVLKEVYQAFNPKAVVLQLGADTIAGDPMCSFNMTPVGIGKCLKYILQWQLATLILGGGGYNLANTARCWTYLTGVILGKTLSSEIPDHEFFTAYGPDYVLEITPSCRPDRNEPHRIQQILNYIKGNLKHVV

Histone deacetylase 3/Nuclear receptor corepressor 2 (HDAC3/NCoR2), sequence (O15379 whole entry): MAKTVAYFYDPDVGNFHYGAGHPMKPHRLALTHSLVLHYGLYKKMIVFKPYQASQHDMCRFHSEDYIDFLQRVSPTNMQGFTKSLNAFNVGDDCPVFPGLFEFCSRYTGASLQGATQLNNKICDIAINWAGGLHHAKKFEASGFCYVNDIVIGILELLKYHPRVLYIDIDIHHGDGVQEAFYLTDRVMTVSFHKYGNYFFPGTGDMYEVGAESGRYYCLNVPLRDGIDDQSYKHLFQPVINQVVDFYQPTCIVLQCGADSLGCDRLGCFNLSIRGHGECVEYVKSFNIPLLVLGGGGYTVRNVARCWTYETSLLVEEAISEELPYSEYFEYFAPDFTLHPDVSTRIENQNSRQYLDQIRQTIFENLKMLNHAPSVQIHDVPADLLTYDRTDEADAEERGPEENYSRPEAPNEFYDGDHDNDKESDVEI
Histone deacetylase 3/Nuclear receptor corepressor 2 (HDAC3/NCoR2), sequence (Q9Y618 whole entry, further chain): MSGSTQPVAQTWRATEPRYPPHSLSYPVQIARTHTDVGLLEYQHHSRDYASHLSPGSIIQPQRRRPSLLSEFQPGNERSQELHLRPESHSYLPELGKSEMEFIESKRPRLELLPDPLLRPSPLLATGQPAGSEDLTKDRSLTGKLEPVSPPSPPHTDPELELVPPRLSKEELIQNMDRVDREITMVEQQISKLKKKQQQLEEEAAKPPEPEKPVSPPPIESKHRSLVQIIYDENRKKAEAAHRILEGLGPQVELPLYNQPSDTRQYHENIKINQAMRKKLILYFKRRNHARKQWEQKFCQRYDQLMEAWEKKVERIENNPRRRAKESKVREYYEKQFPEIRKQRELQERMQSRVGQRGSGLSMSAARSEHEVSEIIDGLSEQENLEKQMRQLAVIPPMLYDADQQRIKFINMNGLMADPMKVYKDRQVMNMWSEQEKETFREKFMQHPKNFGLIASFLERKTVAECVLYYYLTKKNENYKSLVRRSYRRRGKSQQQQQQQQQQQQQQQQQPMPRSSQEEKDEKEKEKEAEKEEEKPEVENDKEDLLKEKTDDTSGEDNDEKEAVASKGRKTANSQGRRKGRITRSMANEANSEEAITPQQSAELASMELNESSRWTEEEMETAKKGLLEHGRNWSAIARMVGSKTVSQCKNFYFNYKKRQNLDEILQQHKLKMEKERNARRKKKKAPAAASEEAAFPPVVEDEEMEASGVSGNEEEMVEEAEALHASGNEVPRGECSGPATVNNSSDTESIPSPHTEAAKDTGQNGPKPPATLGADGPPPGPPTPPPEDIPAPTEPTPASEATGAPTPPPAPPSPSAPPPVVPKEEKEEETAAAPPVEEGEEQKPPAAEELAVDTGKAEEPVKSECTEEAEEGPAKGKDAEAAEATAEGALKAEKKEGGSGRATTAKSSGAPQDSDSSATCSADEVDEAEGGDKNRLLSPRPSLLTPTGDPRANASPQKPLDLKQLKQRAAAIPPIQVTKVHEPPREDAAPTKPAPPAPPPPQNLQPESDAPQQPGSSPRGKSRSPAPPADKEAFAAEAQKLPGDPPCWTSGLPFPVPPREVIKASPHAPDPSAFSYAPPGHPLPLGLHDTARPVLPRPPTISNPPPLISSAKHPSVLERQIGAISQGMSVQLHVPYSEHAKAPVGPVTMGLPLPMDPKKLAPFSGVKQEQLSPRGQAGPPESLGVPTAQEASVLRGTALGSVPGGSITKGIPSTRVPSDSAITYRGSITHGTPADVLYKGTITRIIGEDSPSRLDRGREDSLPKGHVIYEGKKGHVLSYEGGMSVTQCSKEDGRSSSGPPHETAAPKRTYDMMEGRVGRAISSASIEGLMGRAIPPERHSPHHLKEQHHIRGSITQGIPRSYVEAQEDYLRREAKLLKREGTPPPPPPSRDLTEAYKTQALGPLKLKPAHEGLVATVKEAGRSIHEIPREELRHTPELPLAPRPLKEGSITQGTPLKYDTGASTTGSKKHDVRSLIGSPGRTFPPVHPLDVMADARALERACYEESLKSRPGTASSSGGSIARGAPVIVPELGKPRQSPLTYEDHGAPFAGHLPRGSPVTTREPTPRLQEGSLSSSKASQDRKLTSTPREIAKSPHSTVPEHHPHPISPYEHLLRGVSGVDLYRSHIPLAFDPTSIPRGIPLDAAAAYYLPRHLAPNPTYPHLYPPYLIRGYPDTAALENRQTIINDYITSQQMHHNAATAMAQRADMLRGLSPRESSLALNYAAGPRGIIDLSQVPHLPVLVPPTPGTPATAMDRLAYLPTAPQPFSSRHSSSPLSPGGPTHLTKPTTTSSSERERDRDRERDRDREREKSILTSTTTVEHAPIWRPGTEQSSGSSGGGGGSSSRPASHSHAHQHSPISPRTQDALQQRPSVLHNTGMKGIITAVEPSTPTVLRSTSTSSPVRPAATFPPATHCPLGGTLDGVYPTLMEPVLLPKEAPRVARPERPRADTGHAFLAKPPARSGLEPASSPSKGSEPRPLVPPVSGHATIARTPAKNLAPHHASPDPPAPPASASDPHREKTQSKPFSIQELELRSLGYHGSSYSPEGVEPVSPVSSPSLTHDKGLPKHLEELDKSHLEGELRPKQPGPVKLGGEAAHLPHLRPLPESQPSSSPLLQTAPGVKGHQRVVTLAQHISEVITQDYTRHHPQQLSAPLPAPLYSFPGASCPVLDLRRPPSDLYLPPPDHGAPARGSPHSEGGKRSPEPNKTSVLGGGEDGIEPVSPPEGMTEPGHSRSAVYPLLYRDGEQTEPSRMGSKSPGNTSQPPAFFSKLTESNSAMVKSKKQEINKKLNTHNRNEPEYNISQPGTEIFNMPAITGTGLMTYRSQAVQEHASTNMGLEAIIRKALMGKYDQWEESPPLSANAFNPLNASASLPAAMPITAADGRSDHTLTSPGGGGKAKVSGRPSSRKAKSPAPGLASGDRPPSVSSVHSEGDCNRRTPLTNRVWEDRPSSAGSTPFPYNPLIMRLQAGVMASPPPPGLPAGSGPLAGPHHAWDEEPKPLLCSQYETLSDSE

| IC50 [1] [µM] | IC50 [2] [µM] | IC50 [3] [µM] | Compound |
| --- | --- | --- | --- |
| 18 | 20 | 0.052 | O=C(NO)c1cccc(C(=O)N/N=C/c2ccccc2)c1 |
| 0.0031 | 0.0021 | 0.29 | C#CCOc1ccc(/C=N/NC(=O)CCCCCCC(=O)NO)cc1 |
| 6.2 | 6.3 | 0.029 | C#CCOc1ccc(/C=N/NC(=O)c2cccc(C(=O)NO)c2)cc1 |
| 15 | 3.6 | 0.023 | O=C1CC/C=C/CCC(=O)N(Cc2cccc(/C=N/NC(=O)c3cccc(C(=O)NO)c3)c2)C[C@@H](c2ccccc2)O1 |
| 15 | 5 | 0.11 | O=C1CC/C=C/CCC(=O)N(Cc2cccc(/C=N/NC(=O)c3cccc(C(=O)NO)c3)c2)C[C@H](c2ccccc2)O1 |
